Reference: the supplement of paper PMC10307832

Key:
Assay in all cases: relative viability (nuclei count vs DMSO), 5 days (fraction); higher = more cells survive
NCI-H1355 = tested on: NCI-H1355
Outline: (§1)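 Lung cancer cell lines in 1536-well plates were dosed by pin tool the day after seeding, either with one drug alone or with a fixed anchor-drug dose plus five library-drug doses (not always all listed) in √10 steps. After 5 days, cells were fixed and their nuclei stained in one step (final 0.05% Triton X-100, 1% formaldehyde, 1 ug/ml Hoechst), then counted on 4× images. Relative viability is the nuclei count in treated wells divided by that in vehicle wells. Values are medians of duplicate plates.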

NCI-H3122 = tested on: NCI-H3122
Outline: as §1

NCI-H1755 = tested on: NCI-H1755
Outline: as §1

NCI-H520 = tested on: NCI-H520
Outline: as §1

NCI-H358 = tested on: NCI-H358
Outline: as §1

A-427 = tested on: A-427
Outline: as §1

EKVX = tested on: EKVX
Outline: as §1

NCI-H1666 = tested on: NCI-H1666
Outline: as §1

NCI-H650 = tested on: NCI-H650
Outline: as §1

NCI-H1650 = tested on: NCI-H1650
Outline: as §1

NCI-H2228 = tested on: NCI-H2228
Outline: as §1

NCI-H838 = tested on: NCI-H838
Outline: as §1

NCI-H322M = tested on: NCI-H322M
Outline: as §1

NCI-H1944 = tested on: NCI-H1944
Outline: as §1

NCI-H441 = tested on: NCI-H441
Outline: as §1

NCI-H2347 = tested on: NCI-H2347
Outline: as §1

LK-2 = tested on: LK-2
Outline: as §1

ChaGo-K-1 = tested on: ChaGo-K-1
Outline: as §1

SW 1573 = tested on: SW 1573
Outline: as §1

NCI-H2085 = tested on: NCI-H2085
Outline: as §1

NCI-H460 = tested on: NCI-H460
Outline: as §1

NCI-H1734 = tested on: NCI-H1734
Outline: as §1

H3255 = tested on: H3255
Outline: as §1

NCI-H596 = tested on: NCI-H596
Outline: as §1

With CCCCCCCCCCCC1=C(O)C(=O)C=C(O)C1=O [Embelin] + CS(=O)(=O)N1CCN(Cc2cc3nc(-c4cccc5[nH]ncc45)nc(N4CCOCC4)c3s2)CC1 [Pictilisib] (partner 1 µM) as the molecule, how does the relative viability (NCI-H1355; first compound 0.08 µM) read?
The relative viability was 0.501.

What about the relative viability (NCI-H1355; first compound 0.8 µM) of the same molecule?
The relative viability was 0.601.

What about the relative viability (NCI-H1355; first compound 2.53 µM) of the same molecule?
Its relative viability is 0.4.

And the relative viability (NCI-H1355; first compound 8 µM)?
Its relative viability is 0.273.

And the relative viability (NCI-H3122; first compound 0.08 µM)?
Its relative viability is 0.647.

And the relative viability (NCI-H3122; first compound 0.8 µM)?
Its relative viability is 0.605.

What about the relative viability (NCI-H3122; first compound 2.53 µM) of the same molecule?
The relative viability was 0.755.

And the relative viability (NCI-H3122; first compound 8 µM)?
Its relative viability is 0.616.

What about the relative viability (NCI-H1755; first compound 0.08 µM) of the same molecule?
The relative viability was 0.502.

What about the relative viability (NCI-H1755; first compound 0.8 µM) of the same molecule?
The relative viability was 0.499.

And the relative viability (NCI-H1755; first compound 2.53 µM)?
Its relative viability is 0.367.

What about the relative viability (NCI-H1755; first compound 8 µM) of the same molecule?
Its relative viability is 0.333.

What about the relative viability (NCI-H520; first compound 0.08 µM) of the same molecule?
Its relative viability is 0.346.

What about the relative viability (NCI-H520; first compound 0.8 µM) of the same molecule?
Its relative viability is 0.386.

What about the relative viability (NCI-H520; first compound 2.53 µM) of the same molecule?
The relative viability was 0.418.

What about the relative viability (NCI-H520; first compound 8 µM) of the same molecule?
Its relative viability is 0.361.

What about the relative viability (NCI-H358; first compound 0.08 µM) of the same molecule?
The relative viability was 0.425.

And the relative viability (NCI-H358; first compound 0.8 µM)?
Its relative viability is 0.39.

What about the relative viability (NCI-H358; first compound 2.53 µM) of the same molecule?
The relative viability was 0.315.

And the relative viability (NCI-H358; first compound 8 µM)?
The relative viability was 0.294.

And the relative viability (A-427; first compound 0.08 µM)?
Its relative viability is 0.857.

What about the relative viability (A-427; first compound 0.8 µM) of the same molecule?
Its relative viability is 0.862.

And the relative viability (A-427; first compound 2.53 µM)?
Its relative viability is 0.654.

And the relative viability (A-427; first compound 8 µM)?
Its relative viability is 0.656.

And the relative viability (EKVX; first compound 0.08 µM)?
The relative viability was 0.481.

What about the relative viability (EKVX; first compound 0.8 µM) of the same molecule?
The relative viability was 0.437.

What about the relative viability (EKVX; first compound 2.53 µM) of the same molecule?
The relative viability was 0.406.

What about the relative viability (EKVX; first compound 8 µM) of the same molecule?
The relative viability was 0.501.

What about the relative viability (NCI-H1666; first compound 0.08 µM) of the same molecule?
The relative viability was 0.482.

And the relative viability (NCI-H1666; first compound 0.8 µM)?
Its relative viability is 0.549.

What about the relative viability (NCI-H1666; first compound 2.53 µM) of the same molecule?
Its relative viability is 0.365.

What about the relative viability (NCI-H1666; first compound 8 µM) of the same molecule?
The relative viability was 0.403.

What about the relative viability (NCI-H650; first compound 0.08 µM) of the same molecule?
The relative viability was 0.939.

And the relative viability (NCI-H650; first compound 0.8 µM)?
Its relative viability is 1.1.

And the relative viability (NCI-H650; first compound 2.53 µM)?
Its relative viability is 1.06.

What about the relative viability (NCI-H650; first compound 8 µM) of the same molecule?
The relative viability was 0.896.

And the relative viability (NCI-H1650; first compound 0.08 µM)?
The relative viability was 0.695.

What about the relative viability (NCI-H1650; first compound 0.8 µM) of the same molecule?
The relative viability was 0.715.

What about the relative viability (NCI-H1650; first compound 2.53 µM) of the same molecule?
Its relative viability is 0.632.

What about the relative viability (NCI-H1650; first compound 8 µM) of the same molecule?
The relative viability was 0.504.

And the relative viability (NCI-H2228; first compound 0.08 µM)?
The relative viability was 0.476.

What about the relative viability (NCI-H2228; first compound 0.8 µM) of the same molecule?
Its relative viability is 0.375.

And the relative viability (NCI-H2228; first compound 2.53 µM)?
The relative viability was 0.457.

And the relative viability (NCI-H2228; first compound 8 µM)?
The relative viability was 0.366.

And the relative viability (NCI-H838; first compound 0.08 µM)?
Its relative viability is 0.49.

What about the relative viability (NCI-H838; first compound 0.8 µM) of the same molecule?
The relative viability was 0.573.

What about the relative viability (NCI-H838; first compound 2.53 µM) of the same molecule?
The relative viability was 0.43.

What about the relative viability (NCI-H838; first compound 8 µM) of the same molecule?
The relative viability was 0.479.

What about the relative viability (NCI-H322M; first compound 0.08 µM) of the same molecule?
Its relative viability is 0.518.

What about the relative viability (NCI-H322M; first compound 0.8 µM) of the same molecule?
Its relative viability is 0.612.

And the relative viability (NCI-H322M; first compound 2.53 µM)?
The relative viability was 0.576.

What about the relative viability (NCI-H322M; first compound 8 µM) of the same molecule?
Its relative viability is 0.478.

What about the relative viability (NCI-H1944; first compound 0.08 µM) of the same molecule?
The relative viability was 0.367.

What about the relative viability (NCI-H1944; first compound 0.8 µM) of the same molecule?
Its relative viability is 0.383.

What about the relative viability (NCI-H1944; first compound 2.53 µM) of the same molecule?
Its relative viability is 0.36.

And the relative viability (NCI-H1944; first compound 8 µM)?
The relative viability was 0.306.

What about the relative viability (NCI-H441; first compound 0.08 µM) of the same molecule?
The relative viability was 0.437.

And the relative viability (NCI-H441; first compound 0.8 µM)?
The relative viability was 0.549.

What about the relative viability (NCI-H441; first compound 2.53 µM) of the same molecule?
Its relative viability is 0.476.

What about the relative viability (NCI-H441; first compound 8 µM) of the same molecule?
The relative viability was 0.505.

What about the relative viability (NCI-H2347; first compound 0.08 µM) of the same molecule?
The relative viability was 0.64.

And the relative viability (NCI-H2347; first compound 0.8 µM)?
The relative viability was 0.886.

And the relative viability (NCI-H2347; first compound 2.53 µM)?
Its relative viability is 0.924.

What about the relative viability (NCI-H2347; first compound 8 µM) of the same molecule?
The relative viability was 0.592.

And the relative viability (LK-2; first compound 0.08 µM)?
Its relative viability is 0.567.

What about the relative viability (LK-2; first compound 0.8 µM) of the same molecule?
The relative viability was 0.578.

And the relative viability (LK-2; first compound 2.53 µM)?
Its relative viability is 0.63.

What about the relative viability (LK-2; first compound 8 µM) of the same molecule?
The relative viability was 0.562.

What about the relative viability (ChaGo-K-1; first compound 0.08 µM) of the same molecule?
Its relative viability is 1.

And the relative viability (ChaGo-K-1; first compound 0.8 µM)?
The relative viability was 1.22.

And the relative viability (ChaGo-K-1; first compound 2.53 µM)?
The relative viability was 0.626.

And the relative viability (ChaGo-K-1; first compound 8 µM)?
The relative viability was 0.428.

What about the relative viability (SW 1573; first compound 0.08 µM) of the same molecule?
Its relative viability is 0.475.

And the relative viability (SW 1573; first compound 0.8 µM)?
Its relative viability is 0.546.

And the relative viability (SW 1573; first compound 2.53 µM)?
Its relative viability is 0.555.

And the relative viability (SW 1573; first compound 8 µM)?
Its relative viability is 0.527.

What about the relative viability (NCI-H2085; first compound 0.08 µM) of the same molecule?
The relative viability was 0.44.

And the relative viability (NCI-H2085; first compound 0.8 µM)?
The relative viability was 0.404.

What about the relative viability (NCI-H2085; first compound 2.53 µM) of the same molecule?
The relative viability was 0.44.

And the relative viability (NCI-H2085; first compound 8 µM)?
The relative viability was 0.46.

And the relative viability (NCI-H460; first compound 0.08 µM)?
Its relative viability is 0.377.

And the relative viability (NCI-H460; first compound 0.8 µM)?
The relative viability was 0.409.

And the relative viability (NCI-H460; first compound 2.53 µM)?
Its relative viability is 0.476.

And the relative viability (NCI-H460; first compound 8 µM)?
The relative viability was 0.48.

What about the relative viability (NCI-H1734; first compound 0.08 µM) of the same molecule?
Its relative viability is 0.492.

What about the relative viability (NCI-H1734; first compound 0.8 µM) of the same molecule?
The relative viability was 0.547.

And the relative viability (NCI-H1734; first compound 2.53 µM)?
The relative viability was 0.557.

And the relative viability (NCI-H1734; first compound 8 µM)?
Its relative viability is 0.431.

And the relative viability (H3255; first compound 0.08 µM)?
Its relative viability is 0.574.

And the relative viability (H3255; first compound 0.8 µM)?
Its relative viability is 0.62.

And the relative viability (H3255; first compound 2.53 µM)?
Its relative viability is 0.512.

And the relative viability (H3255; first compound 8 µM)?
The relative viability was 0.525.

What about the relative viability (NCI-H596; first compound 0.08 µM) of the same molecule?
The relative viability was 0.389.

What about the relative viability (NCI-H596; first compound 0.8 µM) of the same molecule?
Its relative viability is 0.432.

And the relative viability (NCI-H596; first compound 2.53 µM)?
The relative viability was 0.481.

And the relative viability (NCI-H596; first compound 8 µM)?
Its relative viability is 0.357.
